Source: paper PMC10924921, “Mi-2β promotes immune evasion in melanoma by activating EZH2 methylation” (Nature Communications, 2024)

How the values were obtained:
Assay in all cases: biochemical
Parameters in all cases: KINOMEscan active-site competition binding panel (468 kinase assays), per cent of control at 1000 nM
Details in all cases: KINOMEscan per cent of control (binding competition); read-out: Percent Control
TNK1 = TNK1 (Homo sapiens, UniProt Q13470)
Text: (§1) Figure S7 / Percent Control

AAK1 = AAK1 (Homo sapiens, UniProt Q2M2I8)
Text: as §1

EGFR = EGFR (Homo sapiens, UniProt P00533)
Text: as §1

PYK2 = target: T1, PYK2 (Homo sapiens, UniProt Q14289)
T1 construct: gene PTK2B
T1 sequence (Q14289 whole entry): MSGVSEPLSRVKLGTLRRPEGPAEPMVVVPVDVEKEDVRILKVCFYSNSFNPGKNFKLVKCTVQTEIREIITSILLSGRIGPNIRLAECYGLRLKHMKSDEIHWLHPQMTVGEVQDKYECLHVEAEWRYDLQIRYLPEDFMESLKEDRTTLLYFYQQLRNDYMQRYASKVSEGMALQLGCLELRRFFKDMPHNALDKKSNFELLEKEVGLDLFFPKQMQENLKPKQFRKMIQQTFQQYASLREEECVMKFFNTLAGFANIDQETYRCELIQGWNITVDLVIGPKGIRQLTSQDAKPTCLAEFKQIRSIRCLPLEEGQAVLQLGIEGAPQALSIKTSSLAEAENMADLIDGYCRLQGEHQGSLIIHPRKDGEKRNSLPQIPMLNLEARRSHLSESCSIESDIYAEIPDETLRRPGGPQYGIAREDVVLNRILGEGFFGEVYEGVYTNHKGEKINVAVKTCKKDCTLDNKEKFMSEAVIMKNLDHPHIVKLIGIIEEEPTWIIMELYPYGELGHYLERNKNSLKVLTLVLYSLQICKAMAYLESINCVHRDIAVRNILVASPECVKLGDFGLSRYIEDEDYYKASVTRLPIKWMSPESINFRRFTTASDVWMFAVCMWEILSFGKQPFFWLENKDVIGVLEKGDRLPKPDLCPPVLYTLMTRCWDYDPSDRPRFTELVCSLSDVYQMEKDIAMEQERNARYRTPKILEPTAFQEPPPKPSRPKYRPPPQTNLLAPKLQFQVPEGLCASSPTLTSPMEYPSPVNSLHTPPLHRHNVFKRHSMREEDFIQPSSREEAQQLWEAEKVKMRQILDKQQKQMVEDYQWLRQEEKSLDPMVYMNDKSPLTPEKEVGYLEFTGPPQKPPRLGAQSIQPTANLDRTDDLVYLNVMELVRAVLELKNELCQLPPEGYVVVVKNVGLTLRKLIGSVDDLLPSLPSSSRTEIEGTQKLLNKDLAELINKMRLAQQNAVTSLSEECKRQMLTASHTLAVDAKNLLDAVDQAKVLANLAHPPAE
Text: as §1

TSSK1B = TSSK1B (Homo sapiens, UniProt Q9BXA7)
Text: as §1

DCAMKL1 = target: T2, DCAMKL1 (Homo sapiens, UniProt O15075)
T2 construct: gene DCLK1
T2 sequence (O15075 whole entry): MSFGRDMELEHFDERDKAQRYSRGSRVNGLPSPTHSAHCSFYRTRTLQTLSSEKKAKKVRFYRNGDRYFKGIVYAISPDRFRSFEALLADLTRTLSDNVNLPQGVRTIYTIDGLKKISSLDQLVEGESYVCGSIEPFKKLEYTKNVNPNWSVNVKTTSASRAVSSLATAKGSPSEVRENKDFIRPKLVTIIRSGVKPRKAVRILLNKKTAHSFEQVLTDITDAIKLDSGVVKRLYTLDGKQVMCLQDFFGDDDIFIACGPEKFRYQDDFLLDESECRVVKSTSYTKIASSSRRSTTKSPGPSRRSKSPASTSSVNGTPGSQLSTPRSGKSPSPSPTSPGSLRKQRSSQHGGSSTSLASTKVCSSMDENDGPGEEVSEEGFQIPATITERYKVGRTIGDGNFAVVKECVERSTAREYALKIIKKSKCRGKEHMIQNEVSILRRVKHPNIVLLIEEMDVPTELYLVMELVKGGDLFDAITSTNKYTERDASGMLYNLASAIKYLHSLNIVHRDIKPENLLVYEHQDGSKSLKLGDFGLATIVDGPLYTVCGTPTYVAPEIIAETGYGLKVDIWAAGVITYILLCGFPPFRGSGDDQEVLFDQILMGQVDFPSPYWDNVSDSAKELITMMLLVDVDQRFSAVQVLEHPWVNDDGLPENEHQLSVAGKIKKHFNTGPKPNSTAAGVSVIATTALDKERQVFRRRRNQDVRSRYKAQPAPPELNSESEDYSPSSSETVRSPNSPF
Text: as §1

NIM1 = target: T3, NIM1 (Homo sapiens, UniProt Q8IY84)
T3 construct: gene NIM1K
Text: as §1

TIE1 = TIE1 (Homo sapiens, UniProt P35590)
Text: as §1

CSNK1G2 = CSNK1G2 (Homo sapiens, UniProt P78368)
CSNK1G2, sequence (P78368 whole entry): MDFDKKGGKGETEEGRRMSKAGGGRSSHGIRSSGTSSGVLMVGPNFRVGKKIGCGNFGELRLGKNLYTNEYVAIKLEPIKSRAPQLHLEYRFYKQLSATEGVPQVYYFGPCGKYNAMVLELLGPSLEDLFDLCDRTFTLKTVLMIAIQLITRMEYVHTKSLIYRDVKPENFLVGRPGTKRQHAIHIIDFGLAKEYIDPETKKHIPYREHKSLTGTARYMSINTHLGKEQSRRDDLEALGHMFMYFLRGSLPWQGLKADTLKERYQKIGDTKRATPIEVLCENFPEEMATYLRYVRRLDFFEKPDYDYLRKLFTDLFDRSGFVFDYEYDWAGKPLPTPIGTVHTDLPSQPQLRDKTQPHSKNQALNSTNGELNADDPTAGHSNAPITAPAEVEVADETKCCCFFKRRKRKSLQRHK
Text: as §1

[1] = target: T4, RSK3(Kin.Dom.1-N-terminal) (Homo sapiens, UniProt Q15349)
T4 construct: gene RPS6KA2; Kin.Dom.1-N-terminal
Text: as §1

CLK2 = CLK2 (Homo sapiens, UniProt P49760)
Text: as §1

EGFR(L858R) = EGFR(L858R) (Homo sapiens, UniProt P00533, L858R)
Text: as §1

MYLK4 = MYLK4 (Homo sapiens, UniProt Q86YV6)
MYLK4, sequence (Q86YV6 whole entry): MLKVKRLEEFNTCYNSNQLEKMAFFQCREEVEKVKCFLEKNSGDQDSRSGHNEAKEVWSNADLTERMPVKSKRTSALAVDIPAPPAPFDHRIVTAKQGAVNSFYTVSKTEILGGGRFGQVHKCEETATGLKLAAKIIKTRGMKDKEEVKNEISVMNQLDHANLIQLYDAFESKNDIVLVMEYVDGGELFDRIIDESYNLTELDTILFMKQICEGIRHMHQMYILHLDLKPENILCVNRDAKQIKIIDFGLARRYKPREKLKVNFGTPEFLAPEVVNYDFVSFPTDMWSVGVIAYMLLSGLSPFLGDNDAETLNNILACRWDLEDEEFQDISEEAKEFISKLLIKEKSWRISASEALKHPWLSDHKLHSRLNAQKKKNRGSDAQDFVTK
Text: as §1

FGFR1 = FGFR1 (Homo sapiens, UniProt P11362)
FGFR1, sequence (P11362 whole entry): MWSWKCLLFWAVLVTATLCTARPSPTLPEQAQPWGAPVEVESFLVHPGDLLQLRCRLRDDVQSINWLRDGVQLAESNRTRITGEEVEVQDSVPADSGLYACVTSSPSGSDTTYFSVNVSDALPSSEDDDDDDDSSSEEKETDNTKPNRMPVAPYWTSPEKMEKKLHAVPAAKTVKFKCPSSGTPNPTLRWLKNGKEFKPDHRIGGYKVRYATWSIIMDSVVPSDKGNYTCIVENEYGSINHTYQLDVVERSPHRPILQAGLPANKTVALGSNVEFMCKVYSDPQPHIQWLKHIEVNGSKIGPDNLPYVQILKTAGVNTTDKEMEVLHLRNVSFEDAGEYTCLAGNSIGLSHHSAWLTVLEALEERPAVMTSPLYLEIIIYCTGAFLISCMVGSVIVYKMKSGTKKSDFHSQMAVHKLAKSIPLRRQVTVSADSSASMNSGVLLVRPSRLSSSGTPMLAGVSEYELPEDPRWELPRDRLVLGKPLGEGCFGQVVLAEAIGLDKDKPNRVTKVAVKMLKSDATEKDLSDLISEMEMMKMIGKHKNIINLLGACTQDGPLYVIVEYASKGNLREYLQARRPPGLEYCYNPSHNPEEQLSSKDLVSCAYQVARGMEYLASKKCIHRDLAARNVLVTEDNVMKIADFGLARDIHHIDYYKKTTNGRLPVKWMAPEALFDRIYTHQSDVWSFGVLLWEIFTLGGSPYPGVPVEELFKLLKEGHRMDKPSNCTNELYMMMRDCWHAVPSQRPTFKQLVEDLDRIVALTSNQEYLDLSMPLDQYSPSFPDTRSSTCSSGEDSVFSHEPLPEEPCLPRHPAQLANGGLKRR
Text: as §1

NEK1 = NEK1 (Homo sapiens, UniProt Q96PY6)
Text: as §1

KIT(A829P) = KIT(A829P) (Homo sapiens, UniProt P10721, A829P)
Text: as §1

FER = FER (Homo sapiens, UniProt P16591)
Text: as §1

PIKFYVE = PIKFYVE (Homo sapiens, UniProt Q9Y2I7)
Text: as §1

PDPK1 = PDPK1 (Homo sapiens, UniProt O15530)
Text: as §1

TTK = TTK (Homo sapiens, UniProt P33981)
Text: as §1

INSRR = INSRR (Homo sapiens, UniProt P14616)
Text: as §1

JNK1 = target: T5, JNK1 (Homo sapiens, UniProt P45983)
T5 construct: gene MAPK8
T5 sequence (P45983 whole entry): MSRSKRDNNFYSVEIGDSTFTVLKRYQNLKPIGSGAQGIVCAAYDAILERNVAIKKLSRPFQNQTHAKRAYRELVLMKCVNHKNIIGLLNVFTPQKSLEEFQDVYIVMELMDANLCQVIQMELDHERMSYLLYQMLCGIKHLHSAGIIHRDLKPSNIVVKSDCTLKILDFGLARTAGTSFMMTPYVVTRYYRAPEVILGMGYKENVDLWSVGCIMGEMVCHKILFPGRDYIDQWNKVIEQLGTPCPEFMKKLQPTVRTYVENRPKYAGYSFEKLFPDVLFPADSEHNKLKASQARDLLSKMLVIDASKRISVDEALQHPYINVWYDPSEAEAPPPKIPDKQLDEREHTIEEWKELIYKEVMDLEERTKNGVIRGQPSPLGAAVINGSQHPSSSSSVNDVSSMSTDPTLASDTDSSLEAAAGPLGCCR
Text: as §1

CDK4 = CDK4 (Homo sapiens, UniProt P11802)
Text: as §1

PIK3CA(E542K) = PIK3CA(E542K) (Homo sapiens, UniProt P42336, E542K)
PIK3CA(E542K), sequence (P42336 whole entry E542K): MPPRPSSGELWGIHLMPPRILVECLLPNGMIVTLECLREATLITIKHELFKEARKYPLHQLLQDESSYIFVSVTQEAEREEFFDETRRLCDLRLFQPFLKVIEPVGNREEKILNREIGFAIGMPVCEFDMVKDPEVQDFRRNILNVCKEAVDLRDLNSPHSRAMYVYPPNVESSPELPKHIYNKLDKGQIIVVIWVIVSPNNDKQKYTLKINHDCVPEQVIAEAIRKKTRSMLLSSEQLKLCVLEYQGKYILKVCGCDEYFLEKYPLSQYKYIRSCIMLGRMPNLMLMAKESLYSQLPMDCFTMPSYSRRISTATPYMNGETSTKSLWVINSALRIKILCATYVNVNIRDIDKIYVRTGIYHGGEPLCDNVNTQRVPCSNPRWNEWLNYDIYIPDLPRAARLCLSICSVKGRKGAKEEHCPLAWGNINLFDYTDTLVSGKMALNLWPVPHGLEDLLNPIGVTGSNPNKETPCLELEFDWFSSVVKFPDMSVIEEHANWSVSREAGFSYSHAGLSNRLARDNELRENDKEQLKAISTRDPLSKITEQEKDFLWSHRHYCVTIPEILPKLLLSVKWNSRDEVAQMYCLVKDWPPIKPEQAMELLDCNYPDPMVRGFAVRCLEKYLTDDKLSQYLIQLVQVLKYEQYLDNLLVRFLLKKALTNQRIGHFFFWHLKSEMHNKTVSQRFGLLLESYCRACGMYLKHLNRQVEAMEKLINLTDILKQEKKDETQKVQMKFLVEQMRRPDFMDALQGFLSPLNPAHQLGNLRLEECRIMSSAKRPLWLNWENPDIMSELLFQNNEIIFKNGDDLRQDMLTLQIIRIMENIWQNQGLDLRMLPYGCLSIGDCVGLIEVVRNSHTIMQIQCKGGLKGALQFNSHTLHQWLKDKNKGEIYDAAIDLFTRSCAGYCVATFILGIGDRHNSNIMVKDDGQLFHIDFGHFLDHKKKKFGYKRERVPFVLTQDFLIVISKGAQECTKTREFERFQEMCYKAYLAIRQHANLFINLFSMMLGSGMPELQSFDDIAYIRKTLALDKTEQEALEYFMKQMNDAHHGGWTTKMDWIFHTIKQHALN
Text: as §1

HIPK3 = HIPK3 (Homo sapiens, UniProt Q9H422)
Text: as §1

SMILES: Cn1c(=O)[nH]c2ccc(-c3cccc(C(=O)NC4CCn5ccnc5C4)c3)cc21 (stereo not shown) [Z36-MP5]
- remaining binding at 1 µM (TNK1): 77%
- remaining binding at 1 µM (AAK1): 91%
- remaining binding at 1 µM (EGFR): 97%
- remaining binding at 1 µM (PYK2): 93%
- remaining binding at 1 µM (TSSK1B): 92%
- remaining binding at 1 µM (DCAMKL1): 53%
- remaining binding at 1 µM (NIM1): 72%
- remaining binding at 1 µM (TIE1): 97%
- remaining binding at 1 µM (CSNK1G2): 86%
- remaining binding at 1 µM [1]: 93%
- remaining binding at 1 µM (CLK2): 90%
- remaining binding at 1 µM (EGFR(L858R)): 99%
- remaining binding at 1 µM (MYLK4): 93%
- remaining binding at 1 µM (FGFR1): 55%
- remaining binding at 1 µM (NEK1): 81%
- remaining binding at 1 µM (KIT(A829P)): 78%
- remaining binding at 1 µM (FER): 90%
- remaining binding at 1 µM (PIKFYVE): 96%
- remaining binding at 1 µM (PDPK1): 97%
- remaining binding at 1 µM (TTK): 91%
- remaining binding at 1 µM (INSRR): 86%
- remaining binding at 1 µM (JNK1): 61%
- remaining binding at 1 µM (CDK4): 62%
- remaining binding at 1 µM (PIK3CA(E542K)): 70%
- remaining binding at 1 µM (HIPK3): 61%
